Experimental data: US20060258007A1, “Regulated vectors for selection of cells exhibiting desired phenotypes” (priority 2005, published 2006)

System: cells expressing the HSV-TK gene product
Assay: Negative selection of pIRES-MAB-TK cultures with ganciclovir
Format: cell-based, Chinese Hamster
Settings: 5 days in the presence of ganciclovir, then an additional 10 days in growth media alone
Description: For example, pIRES-MAB-TK cultures are grown for 5 days in the presence of the prodrug ganciclovir (Sigma), which kills cells expressing the HSV-TK gene product. After 5 days of negative selection, cells are grown for an additional 10 days in growth media alone at which time greater than 95% of cells die off. Resistant clones are then picked and expanded in 10 cm petri dishes. Cells are grown for 3 weeks, after which time a portion is reanalyzed for recombinant protein expression, for example, by western blot, RT-PCR, and/or PCR. DNA is analyzed for the presence of the pIRES-pro-TK or pIRES-MAB-TK vector by PCR using any set of primers that can specifically detect the presence or absence of the pIRES vector, for example, according to methods as previously described in Grasso et al. (1998).

Q: Which cells die off does the source give for Nc1nc(O)c2ncn(COC(CO)CO)c2n1 [ganciclovir] here?
A: greater than 95%
